Assay results as given in patent publication US20230365546A1, “5-SUBSTITUTED INDOLE 3-AMIDE DERIVATIVES, PREPARATION METHOD AND USE THEREOF” (ORIGIANT PHARMACEUTICAL CO., LTD, priority 2020, published 2023).

Experiments:
Test in all cases: Kinase Profiler 10 μM panel
[1] = biological target: PI3 Kinase (p110a(E545K)/p85a)(m) (Mus musculus (Mouse), UniProt P42337, E545K)
Experimental: (§1) In vitro kinase assays were conducted using Kinase Profiler services provided by Eurofins. The experimental method was as follows: the small molecule compound to be tested (0.001-10 μM), the protein kinase to be tested were incubated with a buffer containing substrate, 10 mM magnesium acetate, and [γ-^33P-ATP], the reaction was started by adding Mg\TPmix, after incubation for a period of time at room temperature, a 3% phosphate solution was added to the buffer to stop the reaction. Subsequently, 10 μL of the reaction mixture was quantitatively pipetted onto P30 filter paper, which was washed three times with 75 mM phosphate solution and then once with methanol. The P30 filter paper was air-dried and scintillation fluid was added for scintillation counting.

Abl(T315I)(h) = Abl(T315I)(h) (Homo sapiens (Human), UniProt P00519, T315I)
Experimental: as §1

[2] = biological target: PI3 Kinase (p110d/p85a)(m) (Mus musculus (Mouse), UniProt O35904)
Experimental: as §1

ALK4(h) = ALK4(h) (Homo sapiens (Human), UniProt P36896)
Experimental: as §1

GRK3(h) = GRK3(h) (Homo sapiens (Human), UniProt P35626)
Experimental: as §1

Haspin(h) = Haspin(h) (Homo sapiens (Human), UniProt Q8TF76)
Experimental: as §1

HIPK2(h) = HIPK2(h) (Homo sapiens (Human), UniProt Q9H2X6)
Experimental: as §1

IR(h), activated = IR(h), activated (Homo sapiens (Human), UniProt P06213)
Experimental: as §1

IRE1(h) = IRE1(h) (Homo sapiens (Human), UniProt O75460)
Experimental: as §1

PKD3(h) = PKD3(h) (Homo sapiens (Human), UniProt O94806)
Experimental: as §1

JAK2(h) = JAK2(h) (Homo sapiens (Human), UniProt O60674)
Experimental: as §1

PRAK(h) = PRAK(h) (Homo sapiens (Human), UniProt Q8IW41)
Experimental: as §1

Lck(h) activated = Lck(h) activated (Homo sapiens (Human), UniProt P06239)
Experimental: as §1

LIMK1(h) = LIMK1(h) (Homo sapiens (Human), UniProt P53667)
Experimental: as §1

Pyk2(h) = Pyk2(h) (Homo sapiens (Human), UniProt Q14289)
Experimental: as §1

Lyn(m) = Lyn(m) (Mus musculus (Mouse), UniProt P25911)
Experimental: as §1

MAP4K3(h) = MAP4K3(h) (Homo sapiens (Human), UniProt Q8IVH8)
Experimental: as §1

MAPK2(h) = MAPK2(h) (Homo sapiens (Human), UniProt P28482)
Experimental: as §1

MAPK2(m) = MAPK2(m) (Mus musculus (Mouse), UniProt P63085)
Experimental: as §1

CK1(y) = system: CK1(y)
Experimental: as §1

CK1γ1(h) = CK1γ1(h) (Homo sapiens (Human), UniProt Q9HCP0)
Experimental: as §1

MKK3(h) = MKK3(h) (Homo sapiens (Human), UniProt P46734)
Experimental: as §1

Src(1-530)(h) = Src(1-530)(h) (Homo sapiens (Human), UniProt P12931)
Experimental: as §1

Src(T341M)(h) = Src(T341M)(h) (Homo sapiens (Human), UniProt P12931, T341M)
Experimental: as §1

MLCK(h) = system: MLCK(h)
Experimental: as §1

cKit(V654A)(h) = cKit(V654A)(h) (Homo sapiens (Human), UniProt P10721, V654A)
Experimental: as §1

MRCKγ(h) = MRCKγ(h) (Homo sapiens (Human), UniProt Q6DT37)
Experimental: as §1

DDR1(h) = DDR1(h) (Homo sapiens (Human), UniProt Q08345)
Experimental: as §1

EphA4(h) = EphA4(h) (Homo sapiens (Human), UniProt P54764)
Experimental: as §1

PAK2(h) = PAK2(h) (Homo sapiens (Human), UniProt Q13177)
Experimental: as §1

EphA8(h) = EphA8(h) (Homo sapiens (Human), UniProt P29322)
Experimental: as §1

ULK1(h) = ULK1(h) (Homo sapiens (Human), UniProt O75385)
Experimental: as §1

Fer(h) = Fer(h) (Homo sapiens (Human), UniProt P16591)
Experimental: as §1

[3] = biological target: PI3 Kinase (p110a(E542K)/p85a)(h) (Homo sapiens (Human), UniProt P42336, E542K)
Experimental: as §1

Sequence of MRCKγ(h) (Q6DT37 whole entry): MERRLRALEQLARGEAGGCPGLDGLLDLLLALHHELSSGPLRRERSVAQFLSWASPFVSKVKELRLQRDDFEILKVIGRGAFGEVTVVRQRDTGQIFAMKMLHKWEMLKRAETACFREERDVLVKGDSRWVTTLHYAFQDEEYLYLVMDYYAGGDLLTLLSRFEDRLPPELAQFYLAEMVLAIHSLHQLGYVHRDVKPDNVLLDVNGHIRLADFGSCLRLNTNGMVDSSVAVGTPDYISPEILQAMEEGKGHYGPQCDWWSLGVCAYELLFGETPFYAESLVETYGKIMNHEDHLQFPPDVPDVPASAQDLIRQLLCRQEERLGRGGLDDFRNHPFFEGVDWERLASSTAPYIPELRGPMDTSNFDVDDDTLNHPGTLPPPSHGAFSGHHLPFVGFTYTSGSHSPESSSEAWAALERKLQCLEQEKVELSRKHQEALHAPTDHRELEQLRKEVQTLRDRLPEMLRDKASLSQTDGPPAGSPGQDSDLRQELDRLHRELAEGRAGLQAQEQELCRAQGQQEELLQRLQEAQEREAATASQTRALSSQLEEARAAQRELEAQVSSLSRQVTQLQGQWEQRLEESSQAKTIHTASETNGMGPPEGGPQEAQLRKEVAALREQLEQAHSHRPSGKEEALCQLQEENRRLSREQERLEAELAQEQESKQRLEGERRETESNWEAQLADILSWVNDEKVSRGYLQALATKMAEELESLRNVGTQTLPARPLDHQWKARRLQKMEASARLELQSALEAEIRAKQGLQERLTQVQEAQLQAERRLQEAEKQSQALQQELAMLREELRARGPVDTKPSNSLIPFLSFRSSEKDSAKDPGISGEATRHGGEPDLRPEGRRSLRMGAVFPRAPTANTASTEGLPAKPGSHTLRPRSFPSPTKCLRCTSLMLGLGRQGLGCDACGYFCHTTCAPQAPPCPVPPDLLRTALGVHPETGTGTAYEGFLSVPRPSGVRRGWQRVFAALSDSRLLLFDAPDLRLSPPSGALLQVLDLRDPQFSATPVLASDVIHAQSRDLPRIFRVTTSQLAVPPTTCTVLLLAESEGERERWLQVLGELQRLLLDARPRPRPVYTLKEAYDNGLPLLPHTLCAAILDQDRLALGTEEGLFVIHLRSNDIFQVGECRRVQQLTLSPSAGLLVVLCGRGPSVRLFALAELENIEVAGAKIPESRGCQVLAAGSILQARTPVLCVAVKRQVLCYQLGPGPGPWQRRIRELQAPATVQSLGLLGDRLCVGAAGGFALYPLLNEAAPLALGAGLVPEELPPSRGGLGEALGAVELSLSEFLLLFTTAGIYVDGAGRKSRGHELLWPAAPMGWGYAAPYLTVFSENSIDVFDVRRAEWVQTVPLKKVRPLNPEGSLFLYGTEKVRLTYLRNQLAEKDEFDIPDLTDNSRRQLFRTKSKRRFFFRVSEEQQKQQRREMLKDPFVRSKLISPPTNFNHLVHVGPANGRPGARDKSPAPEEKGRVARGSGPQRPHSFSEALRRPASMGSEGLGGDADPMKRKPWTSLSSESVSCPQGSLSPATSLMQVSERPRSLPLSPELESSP
Sequence of CK1γ1(h) (Q9HCP0 whole entry): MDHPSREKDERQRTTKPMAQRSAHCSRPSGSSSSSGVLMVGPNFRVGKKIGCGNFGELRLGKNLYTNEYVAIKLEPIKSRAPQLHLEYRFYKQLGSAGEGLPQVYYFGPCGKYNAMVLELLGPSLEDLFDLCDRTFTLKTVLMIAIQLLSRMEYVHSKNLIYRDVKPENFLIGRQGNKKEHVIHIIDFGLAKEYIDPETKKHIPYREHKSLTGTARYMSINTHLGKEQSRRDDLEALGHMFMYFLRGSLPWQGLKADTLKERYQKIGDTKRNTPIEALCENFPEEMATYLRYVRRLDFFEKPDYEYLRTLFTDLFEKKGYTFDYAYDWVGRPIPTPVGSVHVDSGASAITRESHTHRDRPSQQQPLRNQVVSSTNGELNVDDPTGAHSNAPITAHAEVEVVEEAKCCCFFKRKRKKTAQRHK
Sequence of MAPK2(m) (P63085 whole entry): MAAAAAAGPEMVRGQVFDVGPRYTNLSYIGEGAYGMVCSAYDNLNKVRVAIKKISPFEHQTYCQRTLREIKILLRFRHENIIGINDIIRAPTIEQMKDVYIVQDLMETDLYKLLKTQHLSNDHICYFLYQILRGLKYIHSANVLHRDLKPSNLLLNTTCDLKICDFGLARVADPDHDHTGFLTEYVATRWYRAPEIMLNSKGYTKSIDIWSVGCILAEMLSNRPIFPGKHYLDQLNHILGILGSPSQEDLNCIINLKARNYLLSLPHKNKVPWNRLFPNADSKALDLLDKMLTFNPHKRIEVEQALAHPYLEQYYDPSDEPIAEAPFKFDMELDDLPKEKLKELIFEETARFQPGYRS
Sequence of ULK1(h) (O75385 whole entry): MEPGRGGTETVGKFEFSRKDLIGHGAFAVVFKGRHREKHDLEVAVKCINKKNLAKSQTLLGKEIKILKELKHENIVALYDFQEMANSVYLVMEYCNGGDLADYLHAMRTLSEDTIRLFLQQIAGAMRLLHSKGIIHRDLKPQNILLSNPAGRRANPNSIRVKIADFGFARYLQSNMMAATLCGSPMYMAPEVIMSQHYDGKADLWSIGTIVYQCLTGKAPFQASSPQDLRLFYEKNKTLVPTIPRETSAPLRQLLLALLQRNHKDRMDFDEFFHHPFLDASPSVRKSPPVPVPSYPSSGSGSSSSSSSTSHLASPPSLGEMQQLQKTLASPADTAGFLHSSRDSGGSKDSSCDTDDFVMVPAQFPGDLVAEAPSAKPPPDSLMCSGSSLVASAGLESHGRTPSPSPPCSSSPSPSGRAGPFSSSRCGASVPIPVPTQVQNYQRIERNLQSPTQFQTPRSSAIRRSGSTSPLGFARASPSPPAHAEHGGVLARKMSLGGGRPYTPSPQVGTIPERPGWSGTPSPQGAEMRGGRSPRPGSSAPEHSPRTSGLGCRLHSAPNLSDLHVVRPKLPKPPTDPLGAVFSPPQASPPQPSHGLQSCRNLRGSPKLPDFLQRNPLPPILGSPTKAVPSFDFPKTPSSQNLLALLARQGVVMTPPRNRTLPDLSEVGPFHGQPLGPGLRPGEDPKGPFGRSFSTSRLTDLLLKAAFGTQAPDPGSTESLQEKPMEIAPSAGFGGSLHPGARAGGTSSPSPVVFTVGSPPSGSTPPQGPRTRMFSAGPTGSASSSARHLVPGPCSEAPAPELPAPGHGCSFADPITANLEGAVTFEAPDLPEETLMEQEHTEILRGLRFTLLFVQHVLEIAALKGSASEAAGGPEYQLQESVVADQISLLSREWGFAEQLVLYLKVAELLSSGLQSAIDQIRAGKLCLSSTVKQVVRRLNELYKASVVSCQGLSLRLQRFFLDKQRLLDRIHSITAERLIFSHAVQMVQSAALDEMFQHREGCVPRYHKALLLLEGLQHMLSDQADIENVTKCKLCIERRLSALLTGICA
Sequence of PKD3(h) (O94806 whole entry): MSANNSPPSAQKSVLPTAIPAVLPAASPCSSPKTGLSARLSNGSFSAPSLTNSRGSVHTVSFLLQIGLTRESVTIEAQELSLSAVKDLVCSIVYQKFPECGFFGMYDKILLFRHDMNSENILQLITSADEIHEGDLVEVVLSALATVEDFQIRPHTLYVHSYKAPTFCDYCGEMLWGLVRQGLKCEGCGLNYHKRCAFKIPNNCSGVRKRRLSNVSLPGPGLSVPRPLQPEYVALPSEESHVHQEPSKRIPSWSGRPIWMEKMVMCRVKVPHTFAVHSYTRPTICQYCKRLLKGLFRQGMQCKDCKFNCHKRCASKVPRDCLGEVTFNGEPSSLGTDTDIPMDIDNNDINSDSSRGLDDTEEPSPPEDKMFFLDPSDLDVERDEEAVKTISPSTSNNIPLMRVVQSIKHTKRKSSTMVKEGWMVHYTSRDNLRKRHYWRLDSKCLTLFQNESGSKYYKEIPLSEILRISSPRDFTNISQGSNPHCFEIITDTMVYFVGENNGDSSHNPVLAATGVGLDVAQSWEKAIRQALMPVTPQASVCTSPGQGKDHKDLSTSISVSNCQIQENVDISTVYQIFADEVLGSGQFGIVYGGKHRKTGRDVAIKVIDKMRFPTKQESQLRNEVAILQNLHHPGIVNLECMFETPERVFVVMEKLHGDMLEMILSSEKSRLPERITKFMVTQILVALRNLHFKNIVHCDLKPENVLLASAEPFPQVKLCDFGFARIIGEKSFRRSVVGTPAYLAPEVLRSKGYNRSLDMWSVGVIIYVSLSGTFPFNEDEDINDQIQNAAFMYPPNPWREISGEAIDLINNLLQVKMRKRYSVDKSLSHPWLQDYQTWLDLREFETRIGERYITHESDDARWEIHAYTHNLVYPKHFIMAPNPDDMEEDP
Sequence of Src(T341M)(h) (P12931 whole entry T341M, looked up): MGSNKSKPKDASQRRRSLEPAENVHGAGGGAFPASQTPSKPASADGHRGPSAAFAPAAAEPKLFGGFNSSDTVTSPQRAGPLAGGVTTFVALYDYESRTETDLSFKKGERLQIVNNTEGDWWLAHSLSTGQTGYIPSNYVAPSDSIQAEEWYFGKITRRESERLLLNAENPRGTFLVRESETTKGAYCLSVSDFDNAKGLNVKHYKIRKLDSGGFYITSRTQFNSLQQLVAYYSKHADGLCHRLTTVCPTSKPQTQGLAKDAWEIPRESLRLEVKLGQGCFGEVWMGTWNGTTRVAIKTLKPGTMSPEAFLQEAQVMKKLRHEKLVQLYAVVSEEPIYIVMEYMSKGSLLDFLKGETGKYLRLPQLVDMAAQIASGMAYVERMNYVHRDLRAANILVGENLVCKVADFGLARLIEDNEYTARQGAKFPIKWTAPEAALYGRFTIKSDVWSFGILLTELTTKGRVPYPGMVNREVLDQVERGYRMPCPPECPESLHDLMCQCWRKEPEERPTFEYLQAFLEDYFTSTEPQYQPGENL

For `C[C@H](NC(=O)c1cn(C)c2ccc(-c3ccn4nc(NC(=O)C5CC5)nc4c3)cc12)c1cccc(F)c1` [Compound 94, (S)-5-(2-(cyclopropanecarboxamido)-[1,2,4]triazolo[1,5-a]pyridin-7-yl)-N-(1-(3-fluorophenyl)ethyl)-1-methyl-1H-indole-3-carboxamide], the Inhibition ratio/% [1] was 32%, the Inhibition ratio/% (Abl(T315I)(h)) was 33% and the Inhibition ratio/% [2] was 44%. The Inhibition ratio/% (ALK4(h)) was −18%, the Inhibition ratio/% (GRK3(h)) was −12% and the Inhibition ratio/% (Haspin(h)) was 48%. For the same compound, the Inhibition ratio/% (HIPK2(h)) was 36%, the Inhibition ratio/% (IR(h), activated) was 35% and the Inhibition ratio/% (IRE1(h)) was 22%. For the same compound, the Inhibition ratio/% (PKD3(h)) was −13%, the Inhibition ratio/% (JAK2(h)) was 45% and the Inhibition ratio/% (PRAK(h)) was 30%. The Inhibition ratio/% (Lck(h) activated) was 46%, the Inhibition ratio/% (LIMK1(h)) was −1% and the Inhibition ratio/% (Pyk2(h)) was −5%. The Inhibition ratio/% (Lyn(m)) was 19%, the Inhibition ratio/% (MAP4K3(h)) was 28% and the Inhibition ratio/% (MAPK2(h)) was 40%. The Inhibition ratio/% (MAPK2(m)) was 33%, the Inhibition ratio/% (CK1(y)) was 30% and the Inhibition ratio/% (CK1γ1(h)) was 19%. The Inhibition ratio/% (MKK3(h)) was 38%, the Inhibition ratio/% (Src(1-530)(h)) was 20% and the Inhibition ratio/% (Src(T341M)(h)) was −6%. It also gave an Inhibition ratio/% (MLCK(h)) of 14%, an Inhibition ratio/% (cKit(V654A)(h)) of 68% and an Inhibition ratio/% (MRCKγ(h)) of 55%. The Inhibition ratio/% (DDR1(h)) was 21%, the Inhibition ratio/% (EphA4(h)) was 11% and the Inhibition ratio/% (PAK2(h)) was −14%. The Inhibition ratio/% (EphA8(h)) was 4%, the Inhibition ratio/% (ULK1(h)) was 45% and the Inhibition ratio/% (Fer(h)) was 10%. The Inhibition ratio/% [3] was −4%.

`C[C@H](NC(=O)c1c[nH]c2ccc(-c3ccc4nc(NC(=O)C5CC5)sc4c3)cc12)c1cccc(F)c1` [Compound 34, (S)-5-(2-(cyclopropanecarboxamido)benzo[d]thiazol-6-yl)-N-(1-(3-fluorophenyl)ethyl)-1H-indole-3-carboxamide] gave an Inhibition ratio [1] of 24%, an Inhibition ratio (Abl(T315I)(h)) of 101% and an Inhibition ratio [2] of 31%. For the same compound, the Inhibition ratio (ALK4(h)) was 3%, the Inhibition ratio (GRK3(h)) was −1% and the Inhibition ratio (Haspin(h)) was 39%. It also gave an Inhibition ratio (HIPK2(h)) of 66%, an Inhibition ratio (IR(h), activated) of 13% and an Inhibition ratio (IRE1(h)) of 16%. The Inhibition ratio (PKD3(h)) was −5%, the Inhibition ratio (JAK2(h)) was 11% and the Inhibition ratio (PRAK(h)) was 27%. For the same compound, the Inhibition ratio (Lck(h) activated) was 76%, the Inhibition ratio (LIMK1(h)) was 14% and the Inhibition ratio (Pyk2(h)) was 45%. It also gave an Inhibition ratio (Lyn(m)) of 72%, an Inhibition ratio (MAP4K3(h)) of 95% and an Inhibition ratio (MAPK2(h)) of 11%. It also gave an Inhibition ratio (MAPK2(m)) of 12%, an Inhibition ratio (CK1(y)) of 25% and an Inhibition ratio (CK1γ1(h)) of 5%. It also gave an Inhibition ratio (MKK3(h)) of 35%, an Inhibition ratio (Src(1-530)(h)) of 54% and an Inhibition ratio (Src(T341M)(h)) of 36%. It also gave an Inhibition ratio (MLCK(h)) of 14%, an Inhibition ratio (cKit(V654A)(h)) of −1% and an Inhibition ratio (MRCKγ(h)) of −1%. For the same compound, the Inhibition ratio (DDR1(h)) was 51%, the Inhibition ratio (EphA4(h)) was 14% and the Inhibition ratio (PAK2(h)) was 19%. It also gave an Inhibition ratio (EphA8(h)) of 85%, an Inhibition ratio (ULK1(h)) of 11% and an Inhibition ratio (Fer(h)) of 62%. The Inhibition ratio [3] was 38%.
